From US9868731B2, “Indole amide compound as inhibitor of necrosis” (LG CHEM, LTD., priority 2013, dated 2018) come the findings set out here.

Structures are written as SMILES.

A word on the EC50: it is the concentration at which the effect is half-maximal.

The subject of the first assay is primary hepatocytes isolated from rats. Kind of assay: Hepatocyte protective effect against doxorubicin-induced hepatocyte toxicity (WST-1 viability). The note with it: Hepatocyte; against doxorubicin treatment; primary rat hepatocytes pretreated with compound 30 min; viability by WST-1 after 24-48 hours; concentration giving 50% of maximum protective effect. The format is cell-based. The procedure: Various endogenous/exogenous attacks on cells trigger the mechanisms of cell death which is broadly classified into two types—i.e., apoptosis or necrosis. Using these cell death mechanisms, in the present experimental example, primary hepatocytes isolated from rats were treated with drugs which were clinically shown to result in serious side-effects of hepatocyte toxicity or various chemicals which cause cell death, and the compounds synthesized in the Examples were estimated for their hepatocyte protective effects, after 24-48 hours. The substances used to cause hepatocyte death include CCl4, ActD, H2O2, doxorubicin, anti-Fas Ab/Actinomycin D, acetaminophen, EtOH, CdCl2, palmitate, stearate, cyclophosphamide, terfenadine, diclofenac, simvastatin, and adefovir. Primary hepatocytes were isolated using the method of Seglen P O (Experimental Cell Research 74 (1972), pp. 450-454). Briefly, hepatocytes were isolated according to the two-step collagenase perfusion method, and dead cells were removed by low speed (500 rpm) centrifugation for 10 min using percoll gradient (Kreamer B L et al., In Vitro Cellular & Developmental Biology 22 (1986), pp. 201-211). During this step, the viability of cells was maintained 90% or above. The cells were suspended in HepatoZYME media (Gibco BRL), and the number of cells was counted. 1.5×10^4 cells in 100 μl were placed into the collagen-coated 96-well plate (BD Biocoat), and adhered on the bottom for 3-4 hours.
In order to assess the hepatocyte protective effect, the above adhered cells were pretreated with the Example compounds for 30 min. At this time, the concentration of the Example compounds was serially diluted by 2-fold or 3-fold over 5 steps starting from 30 μM, 10 μM or 1 μM depending on the experiments, and the final concentration of DMSO was adjusted to 0.2%. 30 min after the treatment by the compounds, the cells were treated by the substances deriving hepatocyte death or hepatotoxic drugs at the concentrations indicated in Table 1. After 24-48 hours, the viability of cells was determined to estimate the hepatocyte protective effects. The viability of cells was determined using the WST-1 (MK-400, […]) method by the absorbance at 440 nm. Hepatocyte protective effects of the Example compounds were represented by “EC50” which was calculated from measured values. “EC50” herein means the concentration of the compound at which 50% of maximum protective effect is observed in the experiment.
On the technique in general: Formazan colour is commonly taken as a measure of viable cells.
Consider `CC(C)CCNc1cc(Cl)cc2cc(C(=O)N3CCC(CN)C3)[nH]c12` (centres unmarked) [Example 46, (3-Aminomethyl-pyrrolidin-1-yl)-[5-chloro-7-(3-methyl-butylamino)-1H-indol-2-yl]-methanone], for which the EC50 was found to be 290 nM.
Same read-out and setting: then `N[C@H]1CCN(C(=O)c2cc3cc(Cl)cc(NC4CCCC4)c3[nH]2)C1` [Example 55, ((S)-3-amino-pyrrolidin-1-yl)-(5-chloro-7-cyclopentylamino-1H-indol-2-yl}-methanone], with 430 nM; and `O=C(Nc1cccc(CN2CCOCC2)c1)c1cc2cc(Cl)cc(NC3CCNCC3)c2[nH]1` [Example 13, 5-Chloro-7-(piperidin-4-ylamino)-1H-indol-2-carboxylic acid (3-morpholin-4-ylmethyl-phenyl)-amide], with 150 nM.
In the case of `CCCCCNc1cc(Cl)cc2cc(C(=O)N3CCC(CN)C3)[nH]c12` (centres unmarked) [Example 50, (3-Aminomethyl-pyrrolidin-1-yl)-(5-chloro-7-pentylamino-1H-indol-2-yl]-methanone], the EC50 came out at 175 nM.
In the case of `CC(C)CCN(CCC(C)C)c1cc(Cl)cc2cc(C(=O)N3C[C@@H](CN4CCCC4)[C@H](c4ccc(F)cc4F)C3)[nH]c12` [Example 60, {7-[Bis-(3-methyl-butyl)-amino]-5-chloro-1H-indol-2-yl}-[(3R,4R)-3-(2,4-difluoro-phenyl)-4-pyrrolidin-1-ylmethyl-pyrrolidin-1-yl]-methanone], the EC50 worked out at 250 nM.
Turning to `Cc1cc(NC2CCOCC2)c2[nH]c(C(=O)N3CC[C@H](C(=O)O)C3)cc2c1` [Example 38, (S)-1-[5-methyl-7-(tetrahydropyran-4-ylamino)-1H-indol-2-carbonyl]-pyrrolidin-3-carboxylic acid], the EC50 is 330 nM.
Still for that read-out and setting: then `Cc1cc(NC2CCCC2)c2[nH]c(C(=O)N3CCNCC3)cc2c1` [Example 29, (7-Cyclopentylamino-5-methyl-1H-indol-2-yl)-piperazin-4-yl-methanone], with 200 nM.
For the compound `NCC1CCN(C(=O)c2cc3cc(Cl)cc(N(CC4CC4)CC4CC4)c3[nH]2)C1` (centres unmarked) [Example 53, (3-Aminomethyl-pyrrolidin-1-yl)-[7-(bis-cyclopropylmethyl-amino)-5-chloro-1H-indol-2-yl]-methanone], the EC50 was found to be 710 nM.

Staying with this assay, now noted: against doxorubicin treatment; primary rat hepatocytes pretreated with compound 30 min; viability by WST-1 after 24-48 hours; concentration giving 50% of maximum protective effect.
Take `NCC1CCN(C(=O)c2cc3cc(Cl)cc(NCCc4ccccc4)c3[nH]2)C1` (centres unmarked) [Example 49, (3-Aminomethyl-pyrrolidin-1-yl)-(5-chloro-7-penethylamino-1H-indol-2-yl]-methanone]: the EC50 amounted to 330 nM.
Still for that read-out and setting: then `NCC1CCCN(C(=O)c2cc3cc(Cl)cc(NC4CCCC4)c3[nH]2)C1` (centres unmarked) [Example 52], with 210 nM; and `NCC1CCN(C(=O)c2cc3cc(Cl)cc(NC4CCCCC4)c3[nH]2)C1` (centres unmarked) [Example 51], with 330 nM.
